Reference: patent publication US6358942B1, “Phenyloxazolidinones having a c-c bond 4-8 membered heterocyclic rings” (Pharmacia & Upjohn Company, priority 1995, dated 2002)

system: Staphylococcus aureus or Streptococcus species; test: Murine Assay: in vivo antimicrobial activity, survival of mice infected intraperitoneally with bacteria; details: Table 1; female mice; treatment 1 h and 5 h after infection, oral intubation or subcutaneous; survival over six days; probit analysis of mortality ratios
Protocol: Antimicrobial activity was tested in vivo using the Murine Assay procedure. Groups of female mice (six mice of 18-20 grams each) were injected intraperitoneally with bacteria which were thawed just prior to use and suspended in brain heart infusion with 4% brewers yeast (Staphylococcus aureus) or brain heart infusion (Streptococcus species). Antibiotic treatment at six dose levels per drug was administered one hour and five hours after infection by either oral intubation or subcutaneous routes. Survival was observed daily for six days. ED50 values based on mortality ratios were calculated using probit analysis. The subject compounds are compared against well-known antimicrobials vancomycin and U-100592 as controls. See “Upjohn Oxazolidinone Antibacterial Agent”, posters presented at the 35th Interscience Conference on Antimicrobial Agents and Chemotherapy.

Row | SMILES | ED50
1 | COC(=O)N1CC(C)(c2ccc(N3C[C@H](CNC(C)=O)OC3=O)cc2F)C1 [Example 3] | 5.00 mg/kg
2 | COCC(=O)N1CC(C)(c2ccc(N3C[C@H](CNC(C)=O)OC3=O)cc2F)C1 [Example 4, (S)-N-[[3-[3-Fluoro-4-[1-(methoxyacetyl)-3-(3-methyl) -azetidinyl]-phenyl]-2-oxo-5-oxazolidinyl]methyl]-acetamide] | >20.00 mg/kg
3 | CC(=O)NC[C@H]1CN(c2ccc(C3(C)CN(C=O)C3)c(F)c2)C(=O)O1 [Example 5, (S)-N-[[3-[3-Fluoro-4-[1-(formyl)-3-(3-methyl)-azetidinyl]-phenyl]-2-oxo-5-oxazolidinyl]methyl]-acetamide] | 3.60 mg/kg
4 | CC(=O)NC[C@H]1CN(c2ccc(C3(C)CN(C(=O)C(Cl)Cl)C3)c(F)c2)C(=O)O1 [Example 6, (S)-N-[[3-[3-Fluoro-4-[1-(dichloroacetyl)-3-(3-methyl) -azetidinyl]-phenyl]-2-oxo-5-oxazolidinyl]methyl]-acetamide] | >20.00 mg/kg
5 | CC(=O)NC[C@H]1CN(c2ccc(C3(C)CN(C(C)=O)C3)c(F)c2)C(=O)O1 [Example 10, (S)-N-[[3-[3-Fluoro-4-[1-acetyl-3-(3-methyl)-azetidinyl]-phenyl]-2-oxo-5-oxazolidinyl]methyl]-acetamide] | 20.00 mg/kg
6 | CC(=O)NC[C@H]1CN(c2ccc(C3(C)CN(CCF)C3)c(F)c2)C(=O)O1 [Example 11, (S)-N-[[3-[3-Fluoro-4-[1-(2-fluoroethyl)-3-(3-methyl) -azetidinyl]-phenyl]-2-oxo-5-oxazolidinyl]methyl]-acetamide] | >20.00 mg/kg
7 | CC(=O)NC[C@H]1CN(c2ccc(C3(C)CN(CC#N)C3)c(F)c2)C(=O)O1 [Example 12, (S)-N-[[3-[3-Fluoro-4-[1-(cyanomethyl)-3-(3-methyl) -azetidinyl]-phenyl]-2-oxo-5-oxazolidinyl]methyl]-acetamide] | 20.00 mg/kg
8 | CC(=O)NC[C@H]1CN(c2ccc(C3(C)CN(c4ncc([N+](=O)[O-])s4)C3)c(F)c2)C(=O)O1 [Example 13, (S)-N-[[3-[3-Fluoro-4-[1-(5-nitro-2-thiazolyl)-3-(3-methyl) -azetidinyl]-phenyl]-2-oxo-5-oxazolidinyl]methyl]-acetamide] | >10.00 mg/kg
9 | CC(=O)NC[C@H]1CN(c2ccc(C3(C)CN(C(=O)CO)C3)c(F)c2)C(=O)O1 [Example 16, (S)-N-[[3-[3-Fluoro-4-[1-(hydroxyacetyl)-3-(3-methyl)azetidinyl]-phenyl]-2-oxo-5-oxazolidinyl]methyl]-acetamide] | 17.00 mg/kg
10 | CC(=O)NC[C@H]1CN(c2ccc(C3=CCN(C(=O)CO)CC3)c(F)c2)C(=O)O1 [Example 40, (S)-(−)-N-[[3-[4-[1-(Hydroxyacetyl)-3,6-dihydro-2H-pyridin-4-yl]-3-fluoropheny]-2-oxo-5-oxazolidinyl]methyl]acetamide] | 1.00 mg/kg
11 | CC(=O)NC[C@H]1CN(c2ccc(C3=CCOCC3)c(F)c2)C(=O)O1 [Example 47, (S)-(−)-N-[[3-[4-(3,6-Dihydro-2H-pyran-4-yl)-3-fluoropheny]-2-oxo-5-oxazolidinyl]methyl]acetamide] | 7.10 mg/kg

same assay, conditions: Table 1; female mice; treatment 1 h and 5 h after infection, oral intubation or subcutaneous; survival over six days; probit analysis of mortality ratios; read-out: ED50

Row | SMILES | ED50
12 | CC(=O)NC[C@H]1CN(c2ccc(C3CCN(C(=O)CO)CC3)cc2)C(=O)O1 [Example 19, (S)-(−)-N-[[3-[4-[1-(Hydroxyacetyl)-4-piperidinyl]phenyl]-2-oxo-5-oxazolidinyl]methyl]acetamide] | 6.8 mg/kg
13 | CC(=O)NC[C@H]1CN(c2ccc(C3CCN(C(=O)COCc4ccccc4)CC3)c(F)c2)C(=O)O1 [Example 21, (S)-(−)-N-[[3-[4-[1-[(Benzyloxy)acetyl]-4-piperidinyl]-3-fluorophenyl]-2-oxo-5-oxazolidinyl]methyl]acetamide] | > 20 mg/kg
14 | CC(=O)NC[C@H]1CN(c2ccc(C3CCN(C(=O)CO)CC3)c(F)c2)C(=O)O1 [Example 22, (S)-(−)-N-[[3-[4-[1-(Hydroxyacetyl)-4-piperidinyl]-3-fluorophenyl]-2-oxo-5-oxazolidinyl]methyl]acetamide] | 2.3 mg/kg
15 | CC(=O)NC[C@H]1CN(c2ccc(C3CCN(C(=O)c4cc5ccccc5[nH]4)CC3)c(F)c2)C(=O)O1 [Example 23, (S)-(−)-N-[[3-[4-[1-(Indole-2-carbonyl)-4-piperidinyl]-3-fluorophenyl]-2-oxo-5-oxazolidinyl]methyl]acetamide] | > 20 mg/kg
16 | CC(=O)NC[C@H]1CN(c2ccc(C3CCN(C(=O)c4ccno4)CC3)c(F)c2)C(=O)O1 [Example 24, (S)-(−)-N-[[3-[4-[1-(Isoxazole-5-carbonyl)-4-piperidinyl]-3-fluorophenyl]-2-oxo-5-oxazolidinyl]methyl]acetamide] | > 20 mg/kg
17 | CC(=O)NC[C@H]1CN(c2ccc(C3CCN(CCF)CC3)c(F)c2)C(=O)O1 [Example 28, (S)-(−)-N-[[3-[4-[1-(2-Fluoroethyl)-4-piperidinyl]-3-fluorophenyl]-2-oxo-5-oxazolidinyl]methyl]acetamide] | 15.3 mg/kg
18 | CC(=O)NC[C@H]1CN(c2ccc(C3CCN(C=O)CC3)c(F)c2)C(=O)O1 [Example 29, (S)-(−)-N-[[3-[4-[1-(Formyl)-4-piperidinyl]-3-fluorophenyl]-2-oxo-5-oxazolidinyl]methyl]acetamide] | 5 mg/kg
19 | O=C(NC[C@H]1CN(c2ccc(C3CCN(C(=O)CO)CC3)c(F)c2)C(=O)O1)C(Cl)Cl [Example 33, (S)-(−)-2,2-Dichloro-N-[[2-oxo-3-[3-fluoro-4-[1-(hydroxyacetyl)-4-piperidinyl]phenyl]-5-oxazolidinyl]methyl]acetamide] | 10.6 mg/kg
20 | CC(=O)NC[C@H]1CN(c2ccc(C3CCN(C(=O)COC(C)=O)CC3)c(F)c2)C(=O)O1 [Example 34, (S)-(−)-N-[[2-Oxo-3-[3-fluoro-4-[1-[(acetoxy)acetyl]-4-piperidinyl]phenyl]-5-oxazolidinyl]methyl]acetamide] | 6.3 mg/kg
21 | CC(=O)NC[C@H]1CN(c2cc(F)c(C3CCN(C(=O)CO)CC3)c(F)c2)C(=O)O1 [Example 37, (S)-(−)-N-[[3-[4-[1-(Hydroxyacetyl)-4-piperidinyl]-3,5-difluorophenyl]-2-oxo-5-oxazolidinyl]methyl]acetamide] | 8.7 mg/kg
22 | CC(=O)NC[C@H]1CN(c2ccc(C3=CCN(C(=O)COC(C)=O)CC3)c(F)c2)C(=O)O1 [Example 39, (S)-(−)-N-[[2-Oxo-3-[3-fluoro-4-[-1-[(acetoxy)acetyl]-3,6-dihydro-2H-pyridin-4-yl]phenyl]-5-oxazolidinyl]methyl]acetamide] | 3 mg/kg
23 | CC(=O)NC[C@H]1CN(c2ccc(C3CCN(C(=O)CO)C3)c(F)c2)C(=O)O1 (stereo partly drawn) [Example 44, (5S)-N-[[3-[3-Fluoro-4-[1-(hydroxyacetyl)-3-pyrrolidinyl]phenyl]-2-oxo-5-oxazolidinyl]methyl]acetamide] | 5 mg/kg

same assay, conditions: Table 2; female mice; treatment 1 h and 5 h after infection, oral intubation or subcutaneous; survival over six days; probit analysis of mortality ratios

Row | SMILES | ED50
24 | COC(=O)N1CCC(c2ccc(N3C[C@H](CNC(C)=O)OC3=O)cc2F)C1 (stereo partly drawn) [Example 46, (5S)-3-[4-[5-[(Acetylamino)methyl]-2-oxo-3-oxazolidinyl]-2-fluoropheny]-1-pyrrolidinecarboxylic acid methyl ester] | 7.90 mg/kg
25 | CC(=O)NC[C@H]1CN(c2ccc(C3CCOCC3)c(F)c2)C(=O)O1 [Example 48, (S)-(−)-N-[[3-[4-[Tetrahydro-2H-pyran-4-yl]-3-fluoropheny]-2-oxo-5-oxazolidinyl]methyl]acetamide] | 17.50 mg/kg
26 | CC(=O)NC[C@H]1CN(c2ccc(C3=CCSCC3)c(F)c2)C(=O)O1 [Example 49, (S)-(−)-N-[[3-[4-(3,6-Dihydro-2H-thiopyran-4-yl)-3-fluoropheny]-2-oxo-5-oxazolidinyl]methyl]acetamide] | 2.40 mg/kg
27 | CC(=O)NC[C@H]1CN(c2ccc(C3=CCS(=O)(=O)CC3)c(F)c2)C(=O)O1 [Example 50, (S)-(−)-N-[[3-[4-(3,6-Dihydro-2H-thiopyran-4-yl)-3-fluoropheny]-2-oxo-5-oxazolidinyl]methyl]acetamide S,S-dioxide] | 2.20 mg/kg
28 | CC(=O)NC[C@H]1CN(c2ccc(C3CCS(=O)(=O)CC3)c(F)c2)C(=O)O1 [Example 51, (S)-(−)-N-[[3-[3-Fluoro-4-(tetrahydro-2H-thiopyran-4-yl)phenyl]-2-oxo-5-oxazolidinyl]methyl]acetamide S,S-dioxide] | 2.80 mg/kg

same assay, conditions: Table 2; female mice; treatment 1 h and 5 h after infection, oral intubation or subcutaneous; survival over six days; probit analysis of mortality ratios; read-out: ED50

Row | SMILES | ED50
29 | CC(=O)NC[C@H]1CN(c2ccc(C3=CC[S+]([O-])C3)c(F)c2)C(=O)O1 (stereo partly drawn) [68(a), (5S)-N-[[3-[3-Fluoro-4-(2,5-dihydro-1-oxido-3-thienyl)-phenyl]-2-oxo-5-oxazolidinyl]methyl]acetamide] | 3.5 mg/kg
30 | CC(=O)NC[C@H]1CN(c2ccc(C3=CCS(=O)(=O)C3)c(F)c2)C(=O)O1 [69(a), (S)-N-[[3-[3-Fluoro-4-(2,5-dihydro-1,1-dioxido-3-thienyl)-phenyl]-2-oxo-5-oxazolidinyl]methyl]acetamide] | 10 mg/kg
31 | CC(=O)NC[C@H]1CN(c2ccc(C3=CCOCC3)cc2)C(=O)O1 [Example 52, (S)-(−)-N-[[3-[4-(3,6-Dihydro-2H-pyran-4-yl)phenyl]-2-oxo-5-oxazolidinyl]methyl]acetamide] | 4 mg/kg
